From ChEMBL document CHEMBL4765314, “Rational design and biological evaluation of gemfibrozil modified Xenopus GLP-1 derivatives as long-acting hypoglycemic agents” (Eur J Med Chem, 2020)
One block for each substance: values may come before it. Active and inactive are the calls of the source. The rule behind the calls is not given here. Starred links: 1 amine or outer side, 2 acyl side, 3 side chain; linkers in the order of their positions; H or OH if unused. Non-standard residues stand in square brackets, D forms with d. Groups on a side chain read outwards from the residue. ξ: configuration not given here. *: point of attachment. X1 = Cc1ccc(C)c(OCCCC(C)(C)C(=O)OCC(=O)NCCCCCCCCCC(NC(=O)COC(=O)C(C)(C)CCCOc2cc(C)ccc2C)C(=O)*)c1; X2 = Cc1ccc(C)c(OCCCC(C)(C)C(=O)OCC(=O)NCCCCC(NC(=O)COC(=O)C(C)(C)CCCOc2cc(C)ccc2C)C(=O)*)c1; Glycoloyl(O-gemfibrozoyl) = Cc1ccc(C)c(OCCCC(C)(C)C(=O)OCC(=O)*)c1; γGlu = O=C(O)[C@H](CCC(=O)[*:2])N[*:1]; ξK = NCCCCC(N)C(=O)O; Ahx = NCCCCCC(=O)O

Experiments:
[1] = molecular target: Glucagon-like peptide 1 receptor (Homo sapiens, UniProt P43220); assay: Agonist activity at human GLP-1R expressed in HEK293 cells assessed as stimulation of cAMP accumulation incubated for 60 mins by HTRF assay; assay type: functional, cell-based
[2] = test system: Mus musculus; assay: Hypoglycemic activity in 12 hrs fasted ICR mouse assessed as reduction in blood glucose level at 25 nmol/kg, ip dosed 30 mins before glucose challenge measured up to 120 mins by OGTT method; assay type: functional, organism-based; details: time 150.0 min
[3] = Stability in Sprague-Dawley rat plasma assessed as half life at 1000 ng/ml measured up to 48 hrs under shaking condition by LC-MS/MS analysis; assay type: ADME, cell-free
[4] = molecular target: Albumin (Homo sapiens, UniProt P02768); assay: Binding affinity to human serum albumin assessed as retention factor by HPAC method; assay type: ADME
[5] = test system: Mus musculus; assay: Hypoglycemic activity in non-fasted db/db […] mouse assessed as reduction in blood glucose level at 25 nmol/kg, ip dosed 30 mins before glucose challenge measured up to 120 mins by OGTT method; assay type: functional, organism-based
[6] = Renal toxicity in ICR mouse assessed as effect on blood urea nitrogen level at 100 nmol/kg, sc administered once daily for 2 weeks; assay type: organism-based; details: in vivo, 336 h
[7] = Hepatotoxicity in ICR mouse assessed as effect on aspartate aminotransferase level at 100 nmol/kg, sc administered once daily for 2 weeks; assay type: toxicity, organism-based; details: in vivo, 336 h
[8] = Renal toxicity in ICR mouse assessed as effect on serum creatinine level at 100 nmol/kg, sc administered once daily for 2 weeks; assay type: organism-based; details: in vivo, 336 h
[9] = Hepatotoxicity in ICR mouse assessed as effect on alanine aminotransferase level at 100 nmol/kg, sc administered once daily for 2 weeks; assay type: toxicity, organism-based; details: in vivo, 336 h
[10] = test system: Mus musculus; assay: Reduction in serum total cholesterol in C57BL/6 mouse model of high-fat diet induced obesity at 25 nmol/kg, sc administered every two days for 21 days; assay type: functional, organism-based; details: time 21.0 day
[11] = test system: Mus musculus; assay: Hypoglycemic activity in 16 hrs fasted db/db mouse assessed as reduction in blood glucose level at 25 nmol/kg, ip treated 30 mins before glucose challenge and measured at 0 to 24 hrs by multiple OGTT; assay type: functional, organism-based; details: time 1470.0 min
[12] = test system: Mus musculus; assay: Reduction in HbA1c level in db/db mouse at 25 nmol/kg, sc administered every two days for 42 days by OGTT; assay type: functional, organism-based; details: time 42.0 day
[13] = test system: Mus musculus; assay: Inhibition of fat mass gain in normal chow diet fed C57BL/6 mouse at 25 nmol/kg, sc administered every two days for 21 days; assay type: functional, organism-based; details: time 21.0 day
[14] = test system: Mus musculus; assay: Reduction in serum triglyceride in C57BL/6 mouse model of high-fat diet induced obesity at 25 nmol/kg, sc administered every two days for 21 days; assay type: functional, organism-based; details: time 21.0 day
[15] = test system: Mus musculus; assay: Reduction in body weight in C57BL/6 mouse model of diet induced obesity at 25 nmol/kg, sc administered every two days for 21 days relative to control; assay type: functional, organism-based; set-up: scale not given: the % may be the effect or the level left; details: time 21.0 day
[16] = test system: Mus musculus; assay: Inhibition of solid-phase gastric emptying in 12 hrs fasted ICR mouse assessed reduction in gastric emptying rate at 25 nmol/kg, ip allowed for food intake 1 hrs and measured after 4 hrs […]; assay type: functional; set-up: scale not given: the % may be the effect or the level left
[17] = test system: Mus musculus; assay: Reduction in serum LDL level in C57BL/6 mouse model of high-fat diet induced obesity at 25 nmol/kg, sc administered every two days for 21 days; assay type: functional, organism-based; details: time 21.0 day
[18] = test system: Mus musculus; assay: Anorectic effect in normal chow diet fed C57BL/6 mouse assessed as reduction in food intake at 25 nmol/kg, sc administered every two for 21 days; assay type: functional, organism-based; details: time 21.0 day
[19] = test system: Mus musculus; assay: Increase in serum HDL level in C57BL/6 mouse model of high-fat diet induced obesity at 25 nmol/kg, sc administered every two days for 21 days; assay type: functional, organism-based; details: time 21.0 day
[20] = test system: Mus musculus; assay: Improvement in glucose tolerance in standard chow diet fed C57BL/6 mouse at 25 nmol/kg, sc administered every 2 days for 21 days; assay type: functional, organism-based; details: time 21.0 day
[21] = test system: Mus musculus; assay: Effect in normal chow diet fed C57BL/6 mouse assessed as reduction in body weight increase at 25 nmol/kg, sc administered every two days for 21 days (reference value: 10.8%); assay type: functional, organism-based; set-up: scale not given: the % may be the effect or the level left; details: time 21.0 day
[22] = test system: Mus musculus; assay: Hypoglycemic activity in normal chow diet fed C57BL/6 mouse assessed as fasting blood glucose at 25 nmol/kg, sc administered every two for 21 days; assay type: functional, organism-based; details: time 21.0 day
[23] = test system: Mus musculus; assay: Reduction in body fat content in C57BL/6 mouse model of high-fat diet induced obesity at 25 nmol/kg, sc administered every two days for 21 days relative to control; assay type: functional, organism-based; set-up: scale not given: the % may be the effect or the level left; details: time 21.0 day
[24] = test system: Mus musculus; assay: Improvement in glucose tolerance in db/db mouse at 25 nmol/kg, sc administered every 2 days for 42 days by OGTT; assay type: functional, organism-based; details: time 42.0 day
[25] = test system: Mus musculus; assay: Improvement in glucose tolerance in db/db mouse assessed as time for superior hypoglycemic effect by measuring glucose AUC at 25 nmol/kg, sc administered twice daily for 42 days by OGTT; assay type: functional, organism-based; details: time 42.0 day

Sequence of Glucagon-like peptide 1 receptor (P43220 whole entry): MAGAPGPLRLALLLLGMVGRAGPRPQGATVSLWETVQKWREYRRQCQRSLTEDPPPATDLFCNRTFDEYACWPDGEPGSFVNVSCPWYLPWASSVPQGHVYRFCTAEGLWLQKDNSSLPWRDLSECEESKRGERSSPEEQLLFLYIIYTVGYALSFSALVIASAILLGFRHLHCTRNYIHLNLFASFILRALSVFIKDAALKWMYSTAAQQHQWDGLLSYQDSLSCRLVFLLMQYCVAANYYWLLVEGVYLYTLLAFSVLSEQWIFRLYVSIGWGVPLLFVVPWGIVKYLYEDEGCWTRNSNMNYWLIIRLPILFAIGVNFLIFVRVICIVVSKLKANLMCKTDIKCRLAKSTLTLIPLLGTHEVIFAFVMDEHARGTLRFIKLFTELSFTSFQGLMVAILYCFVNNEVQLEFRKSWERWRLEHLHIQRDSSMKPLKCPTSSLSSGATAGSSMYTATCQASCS
Sequence of Albumin (P02768 whole entry): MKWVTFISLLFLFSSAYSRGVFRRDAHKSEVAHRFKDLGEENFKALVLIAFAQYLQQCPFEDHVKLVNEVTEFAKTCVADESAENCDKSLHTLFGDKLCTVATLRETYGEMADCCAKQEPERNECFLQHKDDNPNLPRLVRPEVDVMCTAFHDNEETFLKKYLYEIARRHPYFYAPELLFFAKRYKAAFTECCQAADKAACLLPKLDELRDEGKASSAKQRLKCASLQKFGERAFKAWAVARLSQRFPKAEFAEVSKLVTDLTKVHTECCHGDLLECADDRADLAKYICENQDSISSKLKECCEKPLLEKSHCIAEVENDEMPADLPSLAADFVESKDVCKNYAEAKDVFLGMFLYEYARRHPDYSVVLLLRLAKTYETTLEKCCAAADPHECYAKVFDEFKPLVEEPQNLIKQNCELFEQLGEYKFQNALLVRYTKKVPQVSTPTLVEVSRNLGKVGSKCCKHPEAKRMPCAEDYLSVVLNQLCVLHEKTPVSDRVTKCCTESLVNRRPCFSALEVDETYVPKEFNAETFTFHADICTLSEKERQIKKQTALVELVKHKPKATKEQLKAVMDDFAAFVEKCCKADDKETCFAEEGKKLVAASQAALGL

Substance: H-HGEGTYTNDVTEYLEEEAAK([γGlu-X1])EFIEWLIKGKPSSGAPPSKKKKKK-OH
EC50 [1]: 0.31 nM
Activity [2]: inactive
half-life at 1000 ng/ml [3]: 33.9 h
K [4]: 12.1

Substance: SEMAGLUTIDE [listing 1 of 2 here]
Activity [6]: Non-Toxic
Activity [7]: Non-Toxic
Activity [8]: Non-Toxic
Activity [9]: Non-Toxic

Substance: SEMAGLUTIDE [listing 2 of 2 here]
Activity [10]: Active
Activity [11]: Active
Activity [12]: Active
Activity [13]: Active
Activity [14]: Active
Activity [15]: 13.4%
Activity [16]: 52%
Activity [17]: Active
Activity [18]: Active
Activity [19]: inactive
Activity [20]: inactive
Activity [21]: 6.7%
Activity [22]: inactive
Activity [23]: 25.5%
Activity [24]: Active
TIME [25]: 1680 h

Second part, led by results:

EC50 [1]: 0.053 nM
half-life at 1000 ng/ml [3]: 16.3 h
K [4]: 6.4
Substance: H-HGEGTYTNDVTEYLEEEAA[ξK]([γGlu-Ahx-Glycoloyl(O-gemfibrozoyl)])EFIEWLIKGKPSSGAPPSKKKKKK-OH
Activity [2]: Active

EC50 [1]: 0.091 nM
half-life at 1000 ng/ml [3]: 29.5 h
K [4]: 11.2
Substance: H-HGEGTYTNDVTEYLEEEAA[ξK]([γGlu-X2])EFIEWLIKGKPSSGAPPSKKKKKK-OH
Activity [2]: Active
Activity [5]: Active
